Reference: patent publication US20260184749A1, “CARBOHYDRATE BINDING POLYPEPTIDE OF SAVALIA SAVAGLIA” (University of Belgrade, priority 2021, published 2026)
Read-outs that look alike come from different tables or passages of the source.

How the values were obtained:
[1] = system: Sava lectin (Savalithsin) from Savalia (Gerardia) savaglia, isoforms SEQ ID NOs: 1, 2, 3 and 4; assay: Isothermal titration calorimetry (ITC) of carbohydrate binding to Sava lectin; conditions: pH 7.4, 50 mM PBS, 25° C.
Excerpt: The present inventors have identified, purified and characterised a novel lectin from Savalia (Gerardia) savaglia. The inventors have identified four very closely-related isoforms of this lectin (see Table 1). The sequences of the isoforms are provided as SEQ ID NOs: 1, 2, 3 and 4. SEQ ID NO: 1 is the sequence of the most prevalent (dominant) form expressed in Savalia (Gerardia) savaglia (as determined by mass spectrometry). […] The lectin may be referred to herein as Sava lectin or Savalithsin. This term may be used to refer to a mixture comprising the four isoforms, which may optionally include other isoforms or variants as defined herein. References to recombinantly produced Savalithsin typically refer to the dominant form.
Isothermal titration calorimetry (ITC) experiments were performed with Sava lectin at pH 7.4 in 50 mM phosphate buffered saline (PBS) at 25° C. and in the presence of different D-carbohydrates (mono- and di-saccharides).
Thermodynamic parameters of mannose and methyl mannoside binding were obtained by algorithm for global fitting of the model function to the experimental ITC thermograms based on the iterative non-linear Levenberg-Marquardt χ2 regression procedure. The best agreement between model and experimental data was achieved when two binding sites per protein molecule were assumed.

[2] = system: Sava lectin (Savalithsin) from Savalia (Gerardia) savaglia, isoforms SEQ ID NOs: 1, 2, 3 and 4; assay: Turbidimetric activity assay of carbohydrate binding to Sava lectin
Protocol: Turbidimetric activity assay was performed to confirm ITC results. […] This small binding constant produces small heat effect that cannot be observed by ITC.

[3] = target: Sava lectin (Savalithsin) from Savalia (Gerardia) savaglia, isoforms SEQ ID NOs: 1, 2, 3 and 4; assay: Microscale thermophoresis (MST) of carbohydrate binding to Sava lectin
Excerpt: Microscale thermophoresis (MST) experiments confirmed binding of mannose and methyl mannoside. […] Two Km values indicate existence of two binding sites that could be different of allosterically connected.

[4] = system: Sava lectin (Savalithsin) from Savalia (Gerardia) savaglia, isoforms SEQ ID NOs: 1, 2, 3 and 4; assay: Differential scanning calorimetry (DSC) of Sava lectin in the presence of carbohydrates; assay type: binding; conditions: for Melting point (Tm) of Sava lectin in the presence of carbohydrate: PBS pH 7.4, Sava lectin alone Tm 79.17° C.
Protocol: Experiments with differential scanning calorimetry confirmed binding of mannose and methyl mannoside, see discussion of thermal stability below.
Thermal stability was determined by differential scanning calorimetry (DSC). Experiments were performed in PBS at pH 7.4. […] Increased Tm indicates stabilization of protein structure in the presence of bound carbohydrate.

[5] = target: the molecule itself; assay: MALDI-TOF mass spectrometry of Sava lectin (self-association, oligomers) [top]

OC[C@H]1OC(O)[C@H](O)[C@@H](O)[C@@H]1O (stereo partly drawn) [D-glucose]
Binding observed using ITC [1]: did not observed binding
Binding (turbidimetric activity assay) [2]: weak binding
Binding constant compared with D-mannose ([2]; relative to D-mannose): two orders of magnitude lower than for D-mannose

OC[C@H]1OC(O)[C@@H](O)[C@@H](O)[C@@H]1O (stereo partly drawn) [D-mannose]
Binding constant (Kb) [1]: 2514 M⁻¹
Kd ([3]; first of two binding events, read-out: Dissociation constant (Kd), first binding event): 0.0265 mM
Kd ([3]; second of two binding events, read-out: Dissociation constant (Kd), second binding event): 11.2 mM
Melting point (Tm) of Sava lectin in the presence of carbohydrate [4]: 79.63 °C

CC(=O)N[C@H]1C(O)O[C@H](CO)[C@H](O)[C@@H]1O (stereo partly drawn) [N-acetyl galactosamine]
Binding observed using ITC [1]: did not observed binding

CC(=O)N[C@H]1C(O)O[C@H](CO)[C@@H](O)[C@@H]1O (stereo partly drawn) [N-acetyl glucosamine]
Binding observed using ITC [1]: did not observed binding

O=C[C@@H](O)[C@H](O)[C@H](O)CO [arabinose]
Binding observed using ITC [1]: did not observed binding

C[C@@H]1OC(O)[C@@H](O)[C@H](O)[C@@H]1O (stereo partly drawn) [fucose]
Binding observed using ITC [1]: did not observed binding

OC[C@H]1OC(O)[C@H](O)[C@@H](O)[C@H]1O (stereo partly drawn) [galactose]
Binding observed using ITC [1]: did not observed binding
Tm of Sava lectin in the presence of carbohydrate, compared with Sava lectin only ([4]; PBS pH 7.4): the same as in the experiment with Sava lectin only

OC[C@H]1O[C@@H](O[C@H]2[C@H](O)[C@@H](O)C(O)O[C@@H]2CO)[C@H](O)[C@@H](O)[C@H]1O (stereo partly drawn) [lactose]
Binding observed using ITC [1]: did not observed binding

OC[C@@H](O)[C@@H](O)[C@H](O)[C@H](O)CO [mannitol]
Binding observed using ITC [1]: did not observed binding

CO[C@H]1O[C@H](CO)[C@@H](O)[C@H](O)[C@@H]1O [methyl alpha-D-mannoside]
Binding constant (Kb) [1]: 1270 M⁻¹
Kd ([3]; read-out: Dissociation constant (Kd)): 13.2 mM
Melting point (Tm) of Sava lectin in the presence of carbohydrate [4]: 79.55 °C

OC[C@H]1O[C@H](OC[C@H]2O[C@H](O[C@]3(CO)O[C@H](CO)[C@@H](O)[C@@H]3O)[C@H](O)[C@@H](O)[C@@H]2O)[C@H](O)[C@@H](O)[C@H]1O [raffinose]
Binding observed using ITC [1]: did not observed binding

C[C@@H]1OC(O)[C@H](O)[C@H](O)[C@H]1O (stereo partly drawn) [rhamnose]
Binding observed using ITC [1]: did not observed binding

B1: Sava lectin (isolated and purified from the coral Savalia (Gerardia) savaglia) (other)
chain: SNLRWVATSGGKVPEHAVVGGENFSGEVLYVARVRINSGLTPGKMAPSYRVAHTSYGGKEFYKSDYELITNPGWKSHIEWKYHEGHSKPTNAVLGGTDQRNLYVARFMYGDGHMLSGKVLFDYGKAYLGYNNKEYESTKFYVLVEHPSW
notes: No glycosylation or other post-translational modification was observed; also called Savalithsin
binding result [5]: binds
